Values after ≈ are worked out from the molar mass of the structure shown.

In assay [1] the test system is Acinetobacter baumannii/haemolyticus, multidrug-resistant clinical isolate (AB-3167). As to the kind of experiment: MIC determination, AB-3167. It counts as cell-based. The following applies: Table 3, lower of duplicate values. Here is the method: (§1) The in vitro antibacterial activity of compounds described in the Examples was evaluated by minimum inhibitory concentration (MIC) testing according to Clinical and Laboratory Standards Institute (CLSI). See: Clinical and Laboratory Standards Institute. Methods for Dilution Antimicrobial Susceptibility Tests for Bacteria that Grow Aerobically; Approved Standard-Eighth Edition. CLSI document M7-A8 [ISBN 1-56238-689-1]. Clinical and Laboratory Standards Institute, 940 West Valley Road, Suite 1400, Wayne, Pa. 19087-1898 USA, 2006; also Clinical and Laboratory Standards Institute. Performance Standards for Antimicrobial Susceptibility Testing; Twentieth Informational Supplement. CLSI document M100-S20 [ISBN 1-56238-716-2]. Clinical and Laboratory Standards Institute.
(§2) The MIC determination is a standard laboratory method for evaluating the antibacterial activity of a compound. The MIC represents the lowest drug concentration that inhibits visible growth of bacteria following overnight incubation. […] Typically, the drug concentration range is broken down into 2-fold increments (e.g. 0.06 μg/mL, 0.12 μg/mL. 0.25 μg/mL, 0.50 μg/mL, 1.0 μg/mL, etc.) and the various drug concentrations are all individually incubated overnight with approximately the same number of bacteria. The MIC is then determined by visually inspecting the drug effect at each concentration, and identifying the lowest drug concentration that has inhibited bacterial growth as compared to the drug free control. Typically, bacteria continue to grow at drug concentrations lower than the MIC and don't grow at concentrations at and above the MIC.
(§3) The MIC values described in Table 2 and 3 below were derived from assays wherein each test compound was evaluated in duplicate. In cases where the duplicate values varied by 0-2-fold, the lower of the two values was reported below. Generally speaking, if the duplicate values varied by more than 2-fold, the assay was considered non-valid and was repeated until the variation between duplicate runs was ≦2-fold. In line with the CLSI guidelines referred to above, both control organisms and reference compounds were utilized in each MIC assay to provide proper quality control. MIC values generated with these control organisms and reference compounds were required to fall within a defined range for the assay to be considered valid and be included herein. Those skilled in the art will recognize that MIC values can and do vary from experiment to experiment. Generally speaking, it should be recognized that MIC values often vary +/−2-fold from experiment to experiment. While a single MIC is reported for each compound and each microorganism, the reader should not conclude that each compound was only tested once. Several of the compounds were subjected to multiple tests. The data reported in Tables 2 and 3 is reflective of the compounds relative activity and different MICs may have been generated on these occasions in line with the guidelines described above.
(§4) The following bacterial strains were used in these MIC determinations:
2) Acinetobacter baumannii/haemolyticus: Multidrug-resistant clinical isolate labeled as AB-3167 in Tables 2 and 3;

The next assay deals with PA:UC12120. The experiment in a line: MIC determination, PA:UC12120 (Table 3). It counts as cell-based, Pseudomonas aeruginosa. The conditions noted are these: Pseudomonas aeruginosa, UC12120, Table 3, lower of duplicate values. Here is the method: as §1, §2, §3
In Table 3 below, column 1 corresponds to the Example number, column 2 provides the IUPAC name, columns 3-6 provide in vitro biological data generated in the same manner as in Table 2, columns 7 and 8 provide the retention times and mass spectra generated via LCMS, using the method described below. All data is not currently available for all compounds, as indicated by a blank cell in Table 3.

Assay [2] deals with Escherichia coli EC-1: VOGEL, mouse virulent. As to the kind of experiment: MIC determination, EC-1. It counts as cell-based. The conditions noted are these: Escherichia coli, read-out: EC-1 (MIC), Table 3, lower of duplicate values. Here is the method:
as §1, §2, §3, §4
3) Escherichia coli EC-1: VOGEL, mouse virulent labeled as EC-1 in Tables 2 and 3;

Assay [3] concerns the target T1, Pseudomonas aeruginosa LpxC enzyme (Pseudomonas aeruginosa, UniProt P47205).
T1 construct: made in house; host or cells: E. coli
T1 sequence (P47205 1-303): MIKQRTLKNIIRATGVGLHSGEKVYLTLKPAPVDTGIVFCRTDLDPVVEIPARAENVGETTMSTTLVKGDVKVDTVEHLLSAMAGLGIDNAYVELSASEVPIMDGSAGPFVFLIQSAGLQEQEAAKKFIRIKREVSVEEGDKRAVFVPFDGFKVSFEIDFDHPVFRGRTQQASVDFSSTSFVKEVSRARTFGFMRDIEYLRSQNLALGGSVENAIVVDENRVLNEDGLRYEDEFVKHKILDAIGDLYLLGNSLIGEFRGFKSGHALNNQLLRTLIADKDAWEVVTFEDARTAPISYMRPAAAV
As to the kind of experiment: IC50 assay, LpxC enzyme from P. aeruginosa (PA LpxC enzyme IC50). The conditions noted are these: Table 3; LpxC enzyme 0.1 nM, 25° C., 1 hour; read-out: PA:IC50. The format is biochemical. Here is the method: In order to assess the compounds biological activity, selected in vitro assays were conducted on selected compounds. One of the assays measured the compounds ability to disrupt the synthesis of lipopolysaccharide, LPS, which is a component of the outer membrane of Gram-negative bacteria. Disruption of this synthesis is lethal to the bacteria. The assay determined the compound's ability to inhibit LpxC, which is the first enzyme in the biosynthetic pathway for LPS (measured as IC50). Additionally, MICs (minimal inhibitory concentrations) were determined for several bacteria. The specific protocols are described below:
A) IC50 Assay, LpxC Enzyme from P. aeruginosa (Labeled as PA LpxC Enzyme IC50):
At the end of 1 hour, 5 ul of 1 N HCl was added to stop the enzyme reaction, the plates were centrifuged, and then processed with the BioTrove Rapidfire HTMS Mass Spectrometry System. A no-enzyme control was used in calculating the IC50 values from the percent conversion values.

Usually MIC stands for the smallest concentration in the dilution series that meets the test's criterion for growth inhibition. A word on the IC50: it is the midpoint of a concentration-inhibition curve. With `COc1cc(-c2cc(=O)n(CCC(C)(C(=O)NO)S(C)(=O)=O)cc2F)ccc1F` (stereo not drawn) [Example 67, 4-[5-fluoro-4-(4-fluoro-3-methoxyphenyl)-2-oxopyridin-1(2H)-yl]-N-hydroxy-2-methyl-2-(methylsulfonyl)butanamide], the values for the MIC (in assay [1]; against PA:UC12120; in assay [2]) were 64 µg/mL (≈ 149 µM), 4 µg/mL (≈ 9.29 µM) and 16 µg/mL (≈ 37.2 µM), respectively. Moreover, in assay [3], the IC50 is 4.5 nM.
The like results for `COc1ccc(OC)c(-c2cc(=O)n(CCC(C)(C(=O)NO)S(C)(=O)=O)cc2F)c1` (stereo not drawn) [Example 54, 4-[4-(2,5-dimethoxyphenyl)-5-fluoro-2-oxopyridin-1(2H)-yl]-N-hydroxy-2-methyl-2-(methylsulfonyl)butanamide] were, in that order, above 64 µg/mL, above 64 µg/mL, above 64 µg/mL and above 100 nM.
For the compound `CC(CCn1cc(F)c(-c2ccc(C(F)(F)F)nc2)cc1=O)(C(=O)NO)S(C)(=O)=O` (stereo not drawn) [Example 113, 4-[5′-fluoro-2′-oxo-6-(trifluoromethyl)-3,4′-bipyridin-1′(2′H)-yl]-N-hydroxy-2-methyl-2-(methylsulfonyl)butanamide], the MIC in assay [1] is above 64 µg/mL; in the assay on PA:UC12120 it was 32 µg/mL (≈ 70.9 µM); in assay [2], above 64 µg/mL. In assay [3], the concentration for half-maximal inhibition (IC50) is 29.6 nM.
On to `CC(CCn1cc(F)c(-c2ccc(Cl)cn2)cc1=O)(C(=O)NO)S(C)(=O)=O` (stereo not drawn) [Example 90, 4-(5-chloro-5′-fluoro-2′-oxo-2,4′-bipyridin-1′(2′H)-yl)-N-hydroxy-2-methyl-2-(methylsulfonyl)butanamide], for which the figures for the MIC (in assay [1]; against PA:UC12120; in assay [2]) were above 64 µg/mL, 16 µg/mL (≈ 38.3 µM) and 64 µg/mL (≈ 153 µM), respectively. The IC50 in assay [3] turned out to be 12.5 nM.
On the same counts, the results for `CC(CCn1cc(F)c(-c2cccc(F)c2)cc1=O)(C(=O)NO)S(C)(=O)=O` (stereo not drawn) [Example 116, 4-[5-fluoro-4-(3-fluorophenyl)-2-oxopyridin-1(2H)-yl]-N-hydroxy-2-methyl-2-(methylsulfonyl)butanamide] are above 64 µg/mL, 1 µg/mL (≈ 2.5 µM), 4 µg/mL (≈ 9.99 µM) and 1 nM.
On the same counts, the results for `COc1cc(C)cc(-c2cc(=O)n(CCC(C)(C(=O)NO)S(C)(=O)=O)cc2F)c1F` (stereo not drawn) [Example 111, 4-[5-fluoro-4-(2-fluoro-3-methoxy-5-methylphenyl)-2-oxopyridin-1(2H)-yl]-N-hydroxy-2-methyl-2-(methylsulfonyl)butanamide] are above 64 µg/mL, 4 µg/mL (≈ 9 µM), 4 µg/mL (≈ 9 µM) and 3 nM.
The like results for `CC(CCn1cc(F)c(-c2cncc(F)c2)cc1=O)(C(=O)NO)S(C)(=O)=O` (stereo not drawn) [Example 55, 4-(5,5′-difluoro-2′-oxo-3,4′-bipyridin-1′(2′H)-yl)-N-hydroxy-2-methyl-2-(methylsulfonyl)butanamide] were, in that order, above 64 µg/mL, 64 µg/mL (≈ 159 µM), above 64 µg/mL and 66.8 nM.
For the compound `Cc1cc(-c2cc(=O)n(CCC(C)(C(=O)NO)S(C)(=O)=O)cc2F)ccc1C#N` (stereo not drawn) [Example 114, 4-[4-(4-cyano-3-methylphenyl)-5-fluoro-2-oxopyridin-1(2H)-yl]-N-hydroxy-2-methyl-2-(methylsulfonyl)butanamide], the MIC is above 64 µg/mL in assay [1], 2 µg/mL (≈ 4.75 µM) in the assay with PA:UC12120 and 4 µg/mL (≈ 9.49 µM) in assay [2]. Also, the IC50 in assay [3] was determined as 1.3 nM.
On the same counts, the results for `CC(CCn1cc(F)c(-c2cccc(F)c2F)cc1=O)(C(=O)NO)S(C)(=O)=O` (stereo not drawn) [Example 117, 4-[4-(2,3-difluorophenyl)-5-fluoro-2-oxopyridin-1(2H)-yl]-N-hydroxy-2-methyl-2-(methylsulfonyl)butanamide] are above 64 µg/mL, 0.5 µg/mL (≈ 1.2 µM), 2 µg/mL (≈ 4.78 µM) and 0.8 nM.
Take `CC(CCn1cc(F)c(-c2ccccc2C#N)cc1=O)(C(=O)NO)S(C)(=O)=O` (stereo not drawn) [Example 94, 4-[4-(2-cyanophenyl)-5-fluoro-2-oxopyridin-1(2H)-yl]-N-hydroxy-2-methyl-2-(methylsulfonyl)butanamide]: the MIC in assay [1] came to 32 µg/mL (≈ 78.5 µM); in the assay with PA:UC12120, 32 µg/mL (≈ 78.5 µM); in assay [2], 8 µg/mL (≈ 19.6 µM). Moreover, in assay [3], the IC50 was found to be 32.3 nM.
Turning to `CCOc1cc(-c2cc(=O)n(CCC(C)(C(=O)NO)S(C)(=O)=O)cc2F)ccn1` (stereo not drawn) [Example 92, 4-(2′-ethoxy-5-fluoro-2-oxo-4,4′-bipyridin-1(2H)-yl)-N-hydroxy-2-methyl-2-(methylsulfonyl)butanamide], the values for the MIC (in assay [1]; with PA:UC12120; in assay [2]) were above 64 µg/mL, 8 µg/mL (≈ 18.7 µM) and 8 µg/mL (≈ 18.7 µM), respectively. Also, in assay [3], the IC50 worked out at 5.7 nM.
Turning to `CC(CCn1cc(F)c(-c2ccc(F)cc2F)cc1=O)(C(=O)NO)S(C)(=O)=O` (stereo not drawn) [Example 97, 4-[4-(2,4-difluorophenyl)-5-fluoro-2-oxopyridin-1(2H)-yl]-N-hydroxy-2-methyl-2-(methylsulfonyl)butanamide], the MIC is above 64 µg/mL in assay [1], 1 µg/mL (≈ 2.39 µM) in the assay with PA:UC12120 and 4 µg/mL (≈ 9.56 µM) in assay [2]. Also, in assay [3], the IC50 is 1.2 nM.
The like results for `COc1cc(-c2cc(=O)n(CCC(C)(C(=O)NO)S(C)(=O)=O)cc2F)cnc1OC` (stereo not drawn) [Example 75, 4-(5′-fluoro-5,6-dimethoxy-2′-oxo-3,4′-bipyridin-1′(2′H)-yl)-N-hydroxy-2-methyl-2-(methylsulfonyl)butanamide] were, in that order, above 64 µg/mL, above 64 µg/mL, above 64 µg/mL and 45.4 nM.
The like results for `Cc1ccc2ccc(-c3cc(=O)n(CCC(C)(C(=O)NO)S(C)(=O)=O)cc3F)cc2n1` (stereo not drawn) [Example 96, 4-[5-fluoro-4-(2-methylquinolin-7-yl)-2-oxopyridin-1(2H)-yl]-N-hydroxy-2-methyl-2-(methylsulfonyl)butanamide] were, in that order, above 64 µg/mL, 32 µg/mL (≈ 71.5 µM), 16 µg/mL (≈ 35.8 µM) and 10.8 nM.
The like results for `COc1cc(C#N)ccc1-c1cc(=O)n(CCC(C)(C(=O)NO)S(C)(=O)=O)cc1F` (stereo not drawn) [Example 101, 4-[4-(4-cyano-2-methoxyphenyl)-5-fluoro-2-oxopyridin-1(2H)-yl]-N-hydroxy-2-methyl-2-(methylsulfonyl)butanamide] were, in that order, above 64 µg/mL, 8 µg/mL (≈ 18.3 µM), 64 µg/mL (≈ 146 µM) and 5.2 nM.
